Laboratory results as given in patent publication US20260159536A1, “AKR1C3-ACTIVATED DNA ALKYLATING AGENT, AND MEDICAL APPLICATION THEREOF” (ASCENTAWITS PHARMACEUTICALS, LTD., priority 2021, published 2026).

Assays:
in vitro = conditions: for % Remaining: with NADPH and AST-3021
Procedure: (1) Compound A for test, progesterone positive control, and 100 mM stock solutions of AST-3021 inhibitor were prepared and stored in the freezer (−10° C. to −30° C.).
1) Negative control group: at different time points (0 and 60 min), 30 μL/well of hepatocyte cytosol suspension containing 7.5 μM of sample for test was distributed in a 96-well plate. Three replicate wells were prepared in parallel.
2) Positive control group: at different time points (0, 5, 15, 30, 45 and 60 min), 30 μL/well of hepatocyte cytosol suspension containing 7.5 μM of the positive control was distributed in a 96-well plate. Three replicate wells were prepared in parallel.
3) Normal reaction group: at different time points (0, 5, 15, 30, 45 and 60 min), 30 μL/well of hepatocyte cytosol suspension containing 7.5 μM of sample for test was distributed in a 96-well plate. Three replicate wells were prepared in parallel.
4) Inhibition reaction group: at different time points (0, 5, 15, 30, 45 and 60 min), 30 μL/well of hepatocyte cytosol suspension containing […] of sample for test and 4.5 μM of the inhibitor was distributed in a 96-well plate. Three replicate wells were prepared in parallel.
6) 0 min samples: after 150 μL/well of acetonitrile containing the internal standard was added, then 15 μL/well of pre-heated NADPH working solution was added to the samples of normal reaction group, inhibition reaction group and positive control group, and 15 μL/well of pre-heated potassium phosphate buffer was added to the samples of negative control group.
7) Other samples (5, 15, 30, 45 and 60 min): for normal reaction group, inhibition reaction group and positive control group, 15 μL/well of pre-heated NADPH working solution was added to start the reaction; for negative control group, 15 μL/well of pre-heated potassium phosphate buffer was added. The reaction plates were then continued to incubate in a 37° C. water bath and the reactions were stopped by the addition of 150 μL/well of stop solution at the corresponding time points (5, 15, 30, 45 and 60 min).
The concentration of analyte in each sample was expressed as a peak area ratio (peak area analyte/peak areainternal standard), then the peak area ratio at 0 min was used as a reference to calculate the % Remaining at each time point of the incubation, and the ln logarithmic value of the % Remaining was linearly fitted to the incubation time and the half-life was calculated according to the following formula.
In the absence of AST-3021, 5 μM of progesterone was co-incubated with 2 mM of NADPH and 1 mg/mL of hepatocyte cytosol for 0-60 min as a positive control.

[1] = Plasma stability test, rat; assay type: in vitro ADME; conditions: 5 μM, 37° C.
Procedure: The pH of the plasma was checked and recorded. Note: a.
The final concentration of solvent was 0.5%.
The assay was performed in duplicate. […] The tubes were mixed by vortex for 5 minutes.

With `O=[N+]([O-])c1ccc(C(OP(=O)(N2CC2)N2CC2)C(F)(F)F)cc1Oc1ccc(-c2ccc(F)cc2)c(F)c1` (racemic) [Compound A] the Metabolic parameter k (in vitro; monkey, 2 mM NADPH, no AST-3021 (normal reaction / positive control group), 5 μM) was 0.0046, the “average % Remaining” value (in vitro; monkey, 2 mM NADPH, no AST-3021 (normal reaction / positive control group), 5 μM, 0 min) was 100.00% and the “average % Remaining” value (in vitro; monkey, 2 mM NADPH, no AST-3021 (normal reaction / positive control group), 5 μM, 5 min) was 98.89%. The “average % Remaining” value (in vitro; monkey, 2 mM NADPH, no AST-3021 (normal reaction / positive control group), 5 μM, 15 min) was 94.52%, the “average % Remaining” value (in vitro; monkey, 2 mM NADPH, no AST-3021 (normal reaction / positive control group), 5 μM, 30 min) was 89.81% and the “average % Remaining” value (in vitro; monkey, 2 mM NADPH, no AST-3021 (normal reaction / positive control group), 5 μM, 45 min) was 83.43%. For the same compound, the “average % Remaining” value (in vitro; monkey, 2 mM NADPH, no AST-3021 (normal reaction / positive control group), 5 μM, 60 min) was 73.28%, the Metabolic parameter k (in vitro; monkey, negative control group (no NADPH, no AST-3021), 5 μM) was 0.0040 and the “average % Remaining” value (in vitro; monkey, negative control group (no NADPH, no AST-3021), 5 μM, 0 min) was 100.00%. For the same compound, the “average % Remaining” value (in vitro; monkey, negative control group (no NADPH, no AST-3021), 5 μM, 60 min) was 78.57%, the “average % Remaining” value (in vitro; mouse, 60 min, no NADPH, no AST-3021) was 83.01% and the “average % Remaining” value (in vitro; mouse, 60 min, with NADPH, no AST-3021) was 88.89%. The “% Remaining” value (in vitro; mouse) was 74.94%, the Metabolic parameter k (in vitro; mouse, 2 mM NADPH + 3 μM AST-3021 (inhibition reaction group), 5 μM) was 0.0041 and the “average % Remaining” value (in vitro; mouse, 2 mM NADPH + 3 μM AST-3021 (inhibition reaction group), 5 μM, 0 min) was 100.00%. The “average % Remaining” value (in vitro; mouse, 2 mM NADPH + 3 μM AST-3021 (inhibition reaction group), 5 μM, 5 min) was 90.76%, the “average % Remaining” value (in vitro; mouse, 2 mM NADPH + 3 μM AST-3021 (inhibition reaction group), 5 μM, 15 min) was 87.29% and the “average % Remaining” value (in vitro; mouse, 2 mM NADPH + 3 μM AST-3021 (inhibition reaction group), 5 μM, 30 min) was 85.00%. For the same compound, the “average % Remaining” value (in vitro; mouse, 2 mM NADPH + 3 μM AST-3021 (inhibition reaction group), 5 μM, 45 min) was 82.33%, the “average % Remaining” value (in vitro; mouse, 2 mM NADPH + 3 μM AST-3021 (inhibition reaction group), 5 μM, 60 min) was 74.94% and the Metabolic parameter k (in vitro; mouse, 2 mM NADPH, no AST-3021 (normal reaction / positive control group), 5 μM) was 0.0014. For the same compound, the “average % Remaining” value (in vitro; mouse, 2 mM NADPH, no AST-3021 (normal reaction / positive control group), 5 μM, 0 min) was 100.00%, the “average % Remaining” value (in vitro; mouse, 2 mM NADPH, no AST-3021 (normal reaction / positive control group), 5 μM, 5 min) was 99.18% and the “average % Remaining” value (in vitro; mouse, 2 mM NADPH, no AST-3021 (normal reaction / positive control group), 5 μM, 15 min) was 109.17%. For the same compound, the “average % Remaining” value (in vitro; mouse, 2 mM NADPH, no AST-3021 (normal reaction / positive control group), 5 μM, 30 min) was 95.86%, the “average % Remaining” value (in vitro; mouse, 2 mM NADPH, no AST-3021 (normal reaction / positive control group), 5 μM, 45 min) was 95.38% and the “average % Remaining” value (in vitro; mouse, 2 mM NADPH, no AST-3021 (normal reaction / positive control group), 5 μM, 60 min) was 88.89%. The Metabolic parameter k (in vitro; mouse, negative control group (no NADPH, no AST-3021), 5 μM) was 0.0031, the “average % Remaining” value (in vitro; mouse, negative control group (no NADPH, no AST-3021), 5 μM, 0 min) was 100.00% and the “average % Remaining” value (in vitro; mouse, negative control group (no NADPH, no AST-3021), 5 μM, 60 min) was 83.01%. The “average % Remaining” value (in vitro; rat, 60 min, no NADPH, no AST-3021) was 68.42%, the “average % Remaining” value (in vitro; rat, 60 min, with NADPH, no AST-3021) was 71.72% and the “% Remaining” value (in vitro; rat) was 63.81%. For the same compound, the Metabolic parameter k (in vitro; rat, 2 mM NADPH + 3 μM AST-3021 (inhibition reaction group), 5 μM) was 0.0068, the “average % Remaining” value (in vitro; rat, 2 mM NADPH + 3 μM AST-3021 (inhibition reaction group), 5 μM, 0 min) was 100.00% and the “average % Remaining” value (in vitro; rat, 2 mM NADPH + 3 μM AST-3021 (inhibition reaction group), 5 μM, 5 min) was 88.10%. The “average % Remaining” value (in vitro; rat, 2 mM NADPH + 3 μM AST-3021 (inhibition reaction group), 5 μM, 15 min) was 86.23%, the “average % Remaining” value (in vitro; rat, 2 mM NADPH + 3 μM AST-3021 (inhibition reaction group), 5 μM, 30 min) was 83.84% and the “average % Remaining” value (in vitro; rat, 2 mM NADPH + 3 μM AST-3021 (inhibition reaction group), 5 μM, 45 min) was 78.06%. The “average % Remaining” value (in vitro; rat, 2 mM NADPH + 3 μM AST-3021 (inhibition reaction group), 5 μM, 60 min) was 63.81%, the Metabolic parameter k (in vitro; rat, 2 mM NADPH, no AST-3021 (normal reaction / positive control group), 5 μM) was 0.0053 and the “average % Remaining” value (in vitro; rat, 2 mM NADPH, no AST-3021 (normal reaction / positive control group), 5 μM, 0 min) was 100.00%. The “average % Remaining” value (in vitro; rat, 2 mM NADPH, no AST-3021 (normal reaction / positive control group), 5 μM, 5 min) was 90.07%, the “average % Remaining” value (in vitro; rat, 2 mM NADPH, no AST-3021 (normal reaction / positive control group), 5 μM, 15 min) was 90.26% and the “average % Remaining” value (in vitro; rat, 2 mM NADPH, no AST-3021 (normal reaction / positive control group), 5 μM, 30 min) was 84.80%. For the same compound, the “average % Remaining” value (in vitro; rat, 2 mM NADPH, no AST-3021 (normal reaction / positive control group), 5 μM, 45 min) was 81.99%, the “average % Remaining” value (in vitro; rat, 2 mM NADPH, no AST-3021 (normal reaction / positive control group), 5 μM, 60 min) was 71.72% and the Metabolic parameter k (in vitro; rat, negative control group (no NADPH, no AST-3021), 5 μM) was 0.0063. For the same compound, the “average % Remaining” value (in vitro; rat, negative control group (no NADPH, no AST-3021), 5 μM, 0 min) was 100.00%, the “average % Remaining” value (in vitro; rat, negative control group (no NADPH, no AST-3021), 5 μM, 60 min) was 68.42% and the “Percentage remaining after 2 hours in plasma” value [1] was 33.03%.
